Measured values as given in PubChem BioAssay AID342 (DTP/NCI, 2004).
Several values for one entry are separate records, joined by “and”; a condition that tells them apart may be missing. Equal entries are not always repeated.

System: Swiss mice, Sarcoma 180 sc, mean tumor weight T/C
Test: NCI In Vivo Anticancer Drug Screen. Data for tumor model Sarcoma 180 (subcutaneous) in Swiss mice
Details: endpoint: mean tumor weight, higher = larger tumour
In short: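 Transplantable tumors were established in mice, compound was given, then survival or tumor size was recorded. The treated value was divided by the vehicle-control value.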

[1] = dose: 30.0 mg/kg/injection, schedule: Q01DX007 (ip), vehicle: saline
[2] = dose: 60.0 mg/kg/injection, schedule: Q01DX007 (ip), vehicle: saline

In the case of CCN(CC)c1ccc2cc3ccc(=[N+](CC)CC)cc-3oc2c1, the T/C (dose: 0.42 mg/kg/injection, schedule: Q#A X014 (ip), vehicle: carboxymethylcellulose (CMC)) is reported as 84 % of control, the T/C (dose: 0.83 mg/kg/injection, schedule: Q#A X014 (ip), vehicle: carboxymethylcellulose (CMC)) is reported as 106 % of control and the T/C (dose: 1.67 mg/kg/injection, schedule: Q#A X014 (ip), vehicle: carboxymethylcellulose (CMC)) is reported as 82 % of control. The T/C (dose: 3.35 mg/kg/injection, schedule: Q#A X014 (ip), vehicle: carboxymethylcellulose (CMC)) was 73 % of control, the T/C (dose: 6.25 mg/kg/injection, schedule: Q01DX007 (ip), vehicle: other) was 111 % of control and the T/C (dose: 12.5 mg/kg/injection, schedule: Q01DX007 (ip), vehicle: other) was 98 % of control.
For CCCCn1cnc2c(=S)nc[nH]c21, the T/C (dose: 12.5 mg/kg/injection, schedule: Q01DX007 (ip), vehicle: carboxymethylcellulose (CMC)) was 77 % of control, the T/C (dose: 25.0 mg/kg/injection, schedule: Q01DX007 (ip), vehicle: carboxymethylcellulose (CMC)) was 53 % of control and the T/C (dose: 50.0 mg/kg/injection, schedule: Q01DX007 (ip), vehicle: carboxymethylcellulose (CMC)) was 63 % of control. The T/C (dose: 100.0 mg/kg/injection, schedule: Q01DX007 (ip), vehicle: carboxymethylcellulose (CMC)) was 29 % of control.
In the case of C[C@]12CCc3c(ccc4cc(O)ccc34)[C@@H]1C[C@H](O)[C@@H]2O, the T/C (dose: 2.5 mg/kg/injection, schedule: Q01DX007 (sc), vehicle: steriod suspending solution) is reported as 90 % of control and the T/C (dose: 10.0 mg/kg/injection, schedule: Q01DX007 (sc), vehicle: steriod suspending solution) is reported as 95 % of control.
COC1=C(N(C)C)C(=O)c2ncccc2C1=O was tested, and the T/C (dose: 12.5 mg/kg/injection, schedule: Q01DX007 (ip), vehicle: water) was 86 % of control, the T/C (dose: 25.0 mg/kg/injection, schedule: Q01DX007 (ip), vehicle: water) was 72 % of control and the T/C (dose: 50.0 mg/kg/injection, schedule: Q01DX007 (ip), vehicle: water) was 92 % of control.
In the case of O=C(O)c1cc2ccccc2c(Br)c1O.OC1CCC(Br)C2CCC[N-]C12.[Cu+], the T/C (dose: 0.5 mg/kg/injection, schedule: Q01DX007 (ip), vehicle: carboxymethylcellulose (CMC)) is reported as 74 % of control, the T/C (dose: 1.0 mg/kg/injection, schedule: Q01DX007 (ip), vehicle: carboxymethylcellulose (CMC)) is reported as 90 % of control and 95 % of control and the T/C (dose: 2.0 mg/kg/injection, schedule: Q01DX007 (ip), vehicle: carboxymethylcellulose (CMC)) is reported as 101 % of control and 109 % of control. The T/C (dose: 4.0 mg/kg/injection, schedule: Q01DX007 (ip), vehicle: carboxymethylcellulose (CMC)) was 83 % of control.
For CCOC(=O)CCCc1ccc(N=NN(C)C)cc1, the T/C (dose: 20.0 mg/kg/injection, schedule: Q01DX007 (ip), vehicle: saline) was 99 % of control, the T/C [1] was 69 % of control and the T/C (dose: 40.0 mg/kg/injection, schedule: Q01DX007 (ip), vehicle: saline) was 63 % of control. For the same compound, the T/C [2] was 68 % of control, the T/C (dose: 75.0 mg/kg/injection, schedule: Q01DX007 (ip), vehicle: saline) was 38 % of control and the T/C (dose: 100.0 mg/kg/injection, schedule: Q01DX007 (ip), vehicle: saline) was 44 % of control. For the same compound, the T/C (dose: 150.0 mg/kg/injection, schedule: Q01DX007 (ip), vehicle: saline) was 31 % of control and the T/C (dose: 200.0 mg/kg/injection, schedule: Q01DX007 (ip), vehicle: saline) was 12 % of control.
In the case of Cc1cc2nc3c(=O)[nH]c(=O)nc-3n(CC(O)C(O)C(O)C(O)CO)c2cc1C (centres undefined), the T/C (dose: 31.25 mg/kg/injection, schedule: Q01DX007 (ip), vehicle: carboxymethylcellulose (CMC)) is reported as 87 % of control, the T/C (dose: 38.25 mg/kg/injection, schedule: Q01DX007 (ip), vehicle: carboxymethylcellulose (CMC)) is reported as 54 % of control and the T/C (dose: 62.5 mg/kg/injection, schedule: Q01DX007 (ip), vehicle: carboxymethylcellulose (CMC)) is reported as 66 % of control. The T/C (dose: 76.5 mg/kg/injection, schedule: Q01DX007 (ip), vehicle: carboxymethylcellulose (CMC)) was 48 % of control, the T/C (dose: 125.0 mg/kg/injection, schedule: Q01DX007 (ip), vehicle: carboxymethylcellulose (CMC)) was 83 % of control and the T/C (dose: 153.0 mg/kg/injection, schedule: Q01DX007 (ip), vehicle: carboxymethylcellulose (CMC)) was 63 % of control. For the same compound, the T/C (dose: 250.0 mg/kg/injection, schedule: Q01DX007 (ip), vehicle: carboxymethylcellulose (CMC)) was 60 % of control and the T/C (dose: 306.0 mg/kg/injection, schedule: Q01DX007 (ip), vehicle: carboxymethylcellulose (CMC)) was 57 % of control.
In the case of Cc1cn(C2OC(CO)C(O)C2O)c(=O)[nH]c1=O (centres undefined), the T/C (dose: 7.5 mg/kg/injection, schedule: Q01DX007 (ip), vehicle: saline) is reported as 90 % of control, the T/C [1] is reported as 115 % of control and the T/C [2] is reported as 89 % of control. The T/C (dose: 120.0 mg/kg/injection, schedule: Q01DX007 (ip), vehicle: saline) was 99 % of control.
For NC(=O)Oc1ccccc1, the T/C (dose: 220.0 mg/kg/injection, schedule: Q01DX007 (ip), vehicle: other) was 69 % of control, the T/C (dose: 330.0 mg/kg/injection, schedule: Q01DX007 (ip), vehicle: other) was 84 % of control and the T/C (dose: 492.0 mg/kg/injection, schedule: Q01DX007 (ip), vehicle: other) was 65 % of control.
In the case of COc1ccc2c(c1)CC[C@@H]1[C@@H]2CC[C@]2(C)C[C@@](C)(O)C[C@@H]12, the T/C (dose: 0.25 mg/kg/injection, schedule: Q#A X014 (sc), vehicle: steriod suspending solution) is reported as 100 % of control, the T/C (dose: 1.25 mg/kg/injection, schedule: Q#A X014 (sc), vehicle: steriod suspending solution) is reported as 84 % of control and the T/C (dose: 2.5 mg/kg/injection, schedule: Q#A X014 (ip), vehicle: methylcellulose (MC)) is reported as 94 % of control. For the same compound, the T/C (dose: 10.0 mg/kg/injection, schedule: Q#A X014 (ip), vehicle: methylcellulose (MC)) was 98 % of control.
For Cc1cc2c(c3oc(C4(C)OC4C4OC4C)cc(=O)c13)C(=O)c1c(O)c(C3CC(C)(N(C)C)C(O)C(C)O3)cc(C3CC(N(C)C)C(O)C(C)O3)c1C2=O (centres undefined), the T/C (dose: 0.05 mg/kg/injection, schedule: Q01DX007 (sc), vehicle: other) was 100 % of control and the T/C (dose: 0.1 mg/kg/injection, schedule: Q01DX007 (sc), vehicle: other) was 79 % of control.
In the case of CN1CC2CC(C1)c1cccc(=O)n1C2 (centres undefined), the T/C (dose: 6.6 mg/kg/injection, schedule: Q01DX007 (ip), vehicle: saline) is reported as 111 % of control, the T/C (dose: 10.0 mg/kg/injection, schedule: Q01DX007 (ip), vehicle: saline) is reported as 49 % of control and the T/C (dose: 15.0 mg/kg/injection, schedule: Q01DX007 (ip), vehicle: saline) is reported as 113 % of control. The T/C (dose: 22.0 mg/kg/injection, schedule: Q01DX007 (ip), vehicle: saline) was 74 % of control.
In the case of O=c1[nH]cc(N(CCCl)CCCl)c(=O)[nH]1, the T/C (dose: 0.2 mg/kg/injection, schedule: Q01DX007 (ip), vehicle: carboxymethylcellulose (CMC)) is reported as 104 % of control, the T/C (dose: 0.31 mg/kg/injection, schedule: Q#A X014 (ip), vehicle: carboxymethylcellulose (CMC)) is reported as 51 % of control and the T/C (dose: 0.32 mg/kg/injection, schedule: Q#A X014 (ip), vehicle: carboxymethylcellulose (CMC)) is reported as 65 % of control. For the same compound, the T/C (dose: 0.4 mg/kg/injection, schedule: Q01DX007 (ip), vehicle: carboxymethylcellulose (CMC)) was 88 % of control, the T/C (dose: 0.4 mg/kg/injection, schedule: Q#A X014 (ip), vehicle: carboxymethylcellulose (CMC)) was 67 % of control and the T/C (dose: 0.53 mg/kg/injection, schedule: Q#A X014 (ip), vehicle: carboxymethylcellulose (CMC)) was 67 % of control. For the same compound, the T/C (dose: 0.62 mg/kg/injection, schedule: Q#A X014 (ip), vehicle: carboxymethylcellulose (CMC)) was 32 % of control, the T/C (dose: 0.64 mg/kg/injection, schedule: Q01DX007 (ip), vehicle: carboxymethylcellulose (CMC)) was 85 % of control and the T/C (dose: 0.75 mg/kg/injection, schedule: Q01DX007 (ip), vehicle: saline) was 85 % of control. For the same compound, the T/C (dose: 0.8 mg/kg/injection, schedule: Q01DX007 (ip), vehicle: carboxymethylcellulose (CMC)) was 62 % of control and 76 % of control, the T/C (dose: 0.8 mg/kg/injection, schedule: Q#A X014 (ip), vehicle: carboxymethylcellulose (CMC)) was 41 % of control and the T/C (dose: 1.06 mg/kg/injection, schedule: Q01DX007 (ip), vehicle: carboxymethylcellulose (CMC)) was 51 % of control. For the same compound, the T/C (dose: 1.5 mg/kg/injection, schedule: Q01DX007 (ip), vehicle: saline) was 60 % of control, the T/C (dose: 1.5 mg/kg/injection, schedule: Q#A X014 (ip), vehicle: alkali diluted with saline) was 21 % of control and the T/C (dose: 1.6 mg/kg/injection, schedule: Q01DX007 (ip), vehicle: carboxymethylcellulose (CMC)) was 21 % of control.
Cc1ncc(CO)c(C)c1O was tested, and the T/C (dose: 25.25 mg/kg/injection, schedule: Q01DX007 (ip), vehicle: carboxymethylcellulose (CMC)) was 102 % of control, the T/C (dose: 27.5 mg/kg/injection, schedule: Q01DX007 (ip), vehicle: carboxymethylcellulose (CMC)) was 77 % of control and the T/C (dose: 50.5 mg/kg/injection, schedule: Q01DX007 (ip), vehicle: carboxymethylcellulose (CMC)) was 102 % of control. The T/C (dose: 55.0 mg/kg/injection, schedule: Q01DX007 (ip), vehicle: carboxymethylcellulose (CMC)) was 54 % of control, the T/C (dose: 101.0 mg/kg/injection, schedule: Q01DX007 (ip), vehicle: carboxymethylcellulose (CMC)) was 84 % of control and the T/C (dose: 110.0 mg/kg/injection, schedule: Q01DX007 (ip), vehicle: carboxymethylcellulose (CMC)) was 53 % of control. For the same compound, the T/C (dose: 202.0 mg/kg/injection, schedule: Q01DX007 (ip), vehicle: carboxymethylcellulose (CMC)) was 71 % of control.
